Each block holds one compound with its values, some of them ahead of it.
Columns and labels:
CF-1 strain mice [1] = test: Topical analgesic activity: tail formalin test; format: in vivo; settings: topical 5% solution; from medians of treated and control group
Procedure: The in vivo biological study evaluated the toxicity, oral analgesic activity and topical analgesic activity in the global methanolic extract of Encelia canescens Lam. For these assessments not inbred males CF-1 strain mice were used, whose weight varied between 14 to 20 g and age between 30 to 35 days. In all evaluations, animals were kept in fasting for 12 hours prior to each test with water ad libitum at room temperature.
Each test was carried out with 10 animals, leaving 2 of them as controls, adding these to a “pool” of animal controls, in total were a group of 16 control animals. At the end of the tests, the animals were sacrificed by cervical dislocation, a painless method.
For all tests, the pharmacological effect was calculated using the values of the median, as a measure of central tendency of the data and standard error of the median (SEM) as measure of dispersion.
Results were analyzed by the non-parametric statistical method of Wilcoxon for independent data (Hollander and Wolfe, 1973), considering significant if its p≦0.05.
This test is intended to determine the analgesic activity via topical of global methanol extract (EMG) of Encella canescens Lam. […] Then, the time of licking which makes the mouse at the site of injection for five minutes, was counted. […] The topical analgesic activity was calculated using the following formula. % D=(Cm/Cc)×100 where: % D: percentage of pain. […]

[2] = Antioxidant evaluation in system lacase-ABTS; format: biochemical
Procedure: In addition, the antioxidant capacity was analyzed using the system lacase-ABTS (2,2-azino-bis-3-ethyl-benzo-thiazolin-6-sulfonic) that allows to establish in a comparative way the oxidation of substrates, denoting of indirect way the antioxidant capacity of a sample (Table 7).

CF-1 strain mice [3] = test: Oral analgesia: abdominal twisting induced by acetic acid; format: in vivo; settings: extract 200 mg/kg in arabic gum, dose of reference drug not given

Structure (SMILES): CC(C)Cc1ccc(C(C)C(=O)O)cc1 (stereo not drawn) [Ibuprofen]
% AAT percentage of the topical analgesic activity (% A 1) (CF-1 strain mice [1]): 76.53%

Antioxidant activity IC50 [2]: 1970 µg/mL
Structure (SMILES): Cc1c(C)c2c(c(C)c1O)CCC(C)(C(=O)O)O2 (stereo not drawn) [Trolox ®, Trolox]

Structure (SMILES): COc1ccc2cc([C@H](C)C(=O)O)ccc2c1 [Naproxen Sodium, Naproxen sodium]
% E percentage of analgesic effect (with median, final) (CF-1 strain mice [3]): 70%

Reference: patent publication US8663715B2, “Compositions, products, therapeutic uses and procedures for the production and/or crystallization of extracts of Encelia canescens LAM (coronilla de fraile)” (Naturaleza Y Fe Ldta, priority 2010, dated 2014)
